Columns and labels:
estrogen synthesis = assay: Estrogen synthesis inhibition in rats (uterine weight and ovarian steroid concentrations); format: in vivo, female Wistar rats; conditions: for Mean Steroid Concentration, estradiol / Mean Steroid Concentration, estriol / Mean Steroid Concentration, estrone: ovaries; for Mean Uterine Weight: testosterone propionate-treated rats
Description: Test compounds were administered for seven days either daily by gavage in corn oil or as a component of the diet. Control animals received either corn oil or diet without the test compound. Beginning on the fourth day of the test, all animals treated with the test compound and one half of the control animals were given a subcutaneous injection of 1.0 mg of testosterone propionate in corn oil. The remaining control animals received only an equivalent volume of corn oil.
After two hours, the animals were killed by decapitation. Uteri were isolated, trimmed of extraneous connective tissue, and weighed. […] In the control animals treated with testosterone propionate, estrogens produced by aromatization stimulated the uterus resulting in an increase in weight.
The ovarian steroids were extracted with 1.5 ml of 9:1 (v/v) toluene/ethanol to which had been added 25 to 100 mcg each of unlabelled estradiol, estriol, and estrone, and approximately 1000 dpm of [^14 C]-estradiol. The samples were vortexed, centrifuged at 500×g for 10 minutes, and the organic phase was transferred to a conical vial. Two additional extractions were performed on the residue in the same way. The pooled organic extracts were evaporated for subsequent thin-layer chromatography.
Ovarian proteins were precipitated by the addition of 5.0 ml of ethanol to the remaining aqueous phase. After an overnight incubation at 4° C., the samples were centrifuged at 1500×g for 10 minutes. The supernatant was discarded, and the pellet was dissolved in 0.3N potassium hydroxide.
The organic residue from each above extraction was redissolved in 9:1 (v/v) dichloromethane/methanol. The solution of each sample was applied to separate silica gel thin layer chromatography plates which contained a fluorescent indicator. The plates were developed in the first dimension with 160:38:1.5:0.5 (v/v/v/v) dichloromethane/ethyl acetate/methanol/acetic acid to within 3 cm of the top of the plate. After air-drying, the plate was developed in the second dimension with 180:19:1 (v/v/v) dichloromethane/methanol/ammonium hydroxide. The plate was air-dried and viewed under 254 nm UV light.
The visible spots were marked and the plates were sprayed with primulin (0.001% in 4:1 v/v acetone/water) according to the method of Wright, J. Chromatography, 59, 220 (1971) which allowed for the identification of additional steroids under 365 nm UV light. The spots were scraped from the plate using a glass wool plugged Pasteur pipet attached to a vacuum line. The steroids were eluted directly into scintillation vials by the addition of 0.2 ml of dichloromethane followed by two washes each of 2.0 ml of methanol. The organic solvent was evaporated and 10.0 ml of scintillation fluid (Beckman Ready Solv-NA) was added to the vials. Samples were analyzed by liquid scintillation spectrometry. Corrections were made based on the recoveries of the [^14 C]-steroid. Steroid concentrations are expressed as femtomoles per milligram protein.

[1] = test system: DMBA-induced mammary tumors; assay: DMBA-induced mammary tumor inhibition; format: in vivo, female Sprague-Dawley rats
Description: Mammary tumors were produced in female Sprague-Dawley rats which were 50-60 days old by the gavage administration of 20 mg of 7,12-dimethylbenz[a]anthracene (DMBA). About six weeks after DMBA administration, the mammary glands were palpated at weekly intervals for the appearance of tumors. Whenever one or more tumors appeared and were measurable in an animal, that animal was selected for experimentation. […] Each control and test group contained 8 animals. The test compound was administered either mixed into the food at a concentration of 300 ppm (corresponding to an appropriate daily dose of 30 mg/kg) or the compounds were dissolved or suspended in corn oil and administered once daily by gavage. Every experiment included a group of control rats having tumors and were either given food without the compound admixed or corn oil vehicle by gavage, depending on how the test compound was administered. […] The area of each tumor was calculated by multiplying the shortest and longest diameters of the tumor. The treatment and measurement of animals continued for 4-8 weeks at which time the final areas of the tumors were determined. For each compound (and control) at each dose level, the change in the mean tumor area was determined. The mean change was analyzed for its significance using Dunnett's t-test.

aromatase = molecular target: T1, aromatase (Rattus norvegicus, UniProt P22443); assay: Aromatase inhibition in the rat ovarian microsome assay; format: biochemical; conditions: EC50: concentration required to achieve 50% inhibition of aromatase activity, substrate (androstenedione) concentration 0.1 μM
T1 construct: ovarian microsomes are obtained from rats treated with pregnant mares serum gonadotropin; from tissue; host or cells: ovarian microsomes of rats treated with pregnant mares serum gonadotropin
T1 sequence (P22443 1-508): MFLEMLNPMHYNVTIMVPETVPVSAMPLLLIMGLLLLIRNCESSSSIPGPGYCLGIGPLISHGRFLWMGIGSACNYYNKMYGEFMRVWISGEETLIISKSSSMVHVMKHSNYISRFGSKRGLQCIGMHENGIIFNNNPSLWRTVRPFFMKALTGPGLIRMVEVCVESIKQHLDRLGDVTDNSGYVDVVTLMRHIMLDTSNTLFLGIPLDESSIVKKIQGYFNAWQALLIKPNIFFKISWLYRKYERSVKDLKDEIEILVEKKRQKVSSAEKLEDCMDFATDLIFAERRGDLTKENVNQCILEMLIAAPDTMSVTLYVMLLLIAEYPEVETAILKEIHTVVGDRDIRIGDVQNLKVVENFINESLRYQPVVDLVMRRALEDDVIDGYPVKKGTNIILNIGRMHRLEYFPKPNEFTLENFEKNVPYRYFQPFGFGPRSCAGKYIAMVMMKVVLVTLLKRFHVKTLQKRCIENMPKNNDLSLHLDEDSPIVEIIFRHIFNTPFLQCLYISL
Description: In this test system, ovarian microsomes are obtained from rats treated with pregnant mares serum gonadotropin. Test compounds are added to reaction vials containing 0.1 μM 4-androstene-3,17-dione, 100,000 dpm 1,2[^3 H]-androstenedione, the microsomes and a NADPH generating system. The concentrations of the inhibitors tested ranged between 0.005 and 10 μM.

breast cancer = conditions: Cancer Research, Vol. 42, Suppl. 8: 3261s (1982); cited from earlier work
[2] = 30 ppm in feed (approximately 3 mg/kg/day)
[3] = 300 ppm in feed (approximately 30 mg/kg/day)
[4] = 300 ppm in diet, 4 weeks, control 62.8 to 1087.3 (Test II), 1087.0 (Test III)

| Structure (SMILES) | Mean Steroid Concentration, estradiol (estrogen synthesis; [2]) | Mean Steroid Concentration, estriol (estrogen synthesis; [2]) | Mean Uterine Weight (estrogen synthesis; [2]) | Mean Steroid Concentration, estradiol (estrogen synthesis; [3]) | Mean Steroid Concentration, estriol (estrogen synthesis; [3]) | Mean Steroid Concentration, estrone (estrogen synthesis; [3]) | Mean Uterine Weight (estrogen synthesis; [3]) | Mean Tumor Area, Start ([1]; 300 ppm in diet, 5 weeks test) | Mean Tumor Area, Finish ([1]; 300 ppm in diet, 5 weeks, control 48.4 to 818.0) | Mean Steroid Concentration, estrone (estrogen synthesis; [2]) | Mean Tumor Area, Start ([1]; 5 mg/kg daily by gavage, 4 weeks test) | Mean Tumor Area, Finish ([1]; 5 mg/kg daily by gavage, 4 weeks, control 54.8 to 914.0) | Mean Tumor Area, Start ([1]; 30 mg/kg daily by gavage, 4 weeks test) | Mean Tumor Area, Finish ([1]; 30 mg/kg daily by gavage, 4 weeks, control 54.8 to 914.0) | Mean Tumor Area, Start ([1]; 300 ppm in diet, 6 weeks test) | Mean Tumor Area, Finish ([1]; 300 ppm in diet, 6 weeks, control 49.6 to 752.1) | Mean Tumor Area, Start ([1]; 300 ppm in diet, 4 weeks test) | Mean Tumor Area, Finish [1, 4] | EC50 (aromatase) | effect in treatment of breast cancer (breast cancer) |
| --- | --- | --- | --- | --- | --- | --- | --- | --- | --- | --- | --- | --- | --- | --- | --- | --- | --- | --- | --- | --- |
| Clc1ccc(C(c2ccccc2)n2ccnc2)cc1 (stereo not shown) [1-[(4-chlorophenyl)phenylmethyl]-1H--imidazole] | 0.92 femtomoles per milligram of protein | 0.75 femtomoles per milligram of protein | 114.8 mg | 0.00 femtomoles per milligram of protein | 0.35 femtomoles per milligram of protein | 0.11 femtomoles per milligram of protein | 68.4 mg | 49.3 mm^2 | 467.0 mm^2 | – | – | – | – | – | – | – | – | – | – | – |
| Clc1ccc(C(c2ccc(Cl)cc2)n2ccnc2)cc1 [1-[bis(4-chlorophenyl)methyl]imidazole] | – | – | 85.3 mg | – | – | – | 66.0 mg | – | – | 0.09 femtomoles per milligram of protein | 44.8 mm^2 | 346.0 mm^2 | 62.4 mm^2 | 276.0 mm^2 | 57.4 mm^2 | 40.8 mm^2 | – | – | – | – |
| O=[N+]([O-])c1ccc(C(c2ccc([N+](=O)[O-])cc2)n2ccnc2)cc1 [1-[bis(4-nitrophenyl)methyl]imidazole] | 0.92 femtomoles per milligram of protein | 1.65 femtomoles per milligram of protein | 105.0 mg | 0.28 femtomoles per milligram of protein | 0.83 femtomoles per milligram of protein | 0.94 femtomoles per milligram of protein | 110.8 mg | – | – | 1.58 femtomoles per milligram of protein | – | – | – | – | – | – | 64.5 mm^2 | 18.9 mm^2 | – | – |
| Clc1ccc(C(c2ccc(Cl)cc2)(c2cccnc2)n2ccnc2)cc1 [3-[4,4'-dichloro-α-(1-imidazolyl)diphenylmethyl]pyridine] | 1.25 femtomoles per milligram of protein | 0.27 femtomoles per milligram of protein | 118.0 mg | 0.75 femtomoles per milligram of protein | 0.28 femtomoles per milligram of protein | 0.24 femtomoles per milligram of protein | 96.8 mg | – | – | 0.11 femtomoles per milligram of protein | – | – | – | – | – | – | 53.8 mm^2 | 154.0 mm^2 | – | – |
| Clc1ccc(C(c2ccc(Cl)cc2)(c2cccnc2)n2cncn2)cc1 [3-[bis(4-chlorophenyl)-1H--1,2,4-triazol-1-ylmethyl]pyridine] | 1.83 femtomoles per milligram of protein | 0.36 femtomoles per milligram of protein | 150.8 mg | 1.18 femtomoles per milligram of protein | 0.13 femtomoles per milligram of protein | 0.06 femtomoles per milligram of protein | 85.6 mg | – | – | 0.06 femtomoles per milligram of protein | – | – | – | – | – | – | – | – | 60 nM | – |
| c1ccc(C(c2ccccc2)(c2ccncc2)n2ccnc2)cc1 [4-(1H--imidazol-1-yl-diphenylmethyl)pyridine] | 0.78 femtomoles per milligram of protein | 0.35 femtomoles per milligram of protein | 156.0 mg | 0.61 femtomoles per milligram of protein | 0.29 femtomoles per milligram of protein | 0.23 femtomoles per milligram of protein | 110.8 mg | – | – | 0.25 femtomoles per milligram of protein | – | – | – | – | – | – | – | – | 12 nM | – |
| CCC1(c2ccc(N)cc2)CCC(=O)NC1=O (stereo not shown) [aminoglutethimide] | – | – | – | – | – | – | – | – | – | – | – | – | – | – | – | – | – | – | – | beneficial effect in treatment of breast cancer |
| C[C@]12C=CC(=O)C=C1CC[C@@H]1[C@@H]2CC[C@]2(C)OC(=O)CC[C@@H]12 [testolactone] | – | – | – | – | – | – | – | – | – | – | – | – | – | – | – | – | – | – | – | beneficial effect in treatment of breast cancer |
